# Like-named read-outs stand apart in the source and are kept apart here.
# What was measured:
# Assay type in all cases: in vivo
# [1] = tested on: Kochia (Kochia scoparia); experiment: Test A preemergence; settings: Bassia scoparia, pre-emergence, 240 h; for pest or weed control at 125 g/ha: 125 g ai/ha, 0 to 100 scale where 0 is no effect and 100 is complete control
# How it was run: (§1)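 Visual injury, scored on a 0–100 scale relative to untreated controls, was recorded about 10 d after application. Treatments were a preemergence soil spray over planted seeds or a postemergence spray on plants at the one- to two-leaf stage, 2 to 10 cm tall, all in loam soil–sand blend in the greenhouse.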
# [2] = tested on: Galium (catchweed bedstraw, Galium aparine); experiment: Test A postemergence; settings: Galium, post-emergence, 240 h; for pest or weed control at 125 g/ha: 125 g ai/ha
# How it was run: as §1
# [3] = tested on: Kochia (Kochia scoparia); experiment: Test A postemergence; settings: Bassia scoparia, post-emergence, 240 h; for pest or weed control at 125 g/ha: 125 g ai/ha
# How it was run: as §1
# [4] = tested on: barnyardgrass (Echinochloa crus-galli); experiment: Test A postemergence; settings: Echinochloa crus-galli, post-emergence, 240 h; for pest or weed control at 125 g/ha: 125 g ai/ha
# How it was run: as §1
# [5] = tested on: blackgrass (Alopecurus myosuroides); experiment: Test A postemergence; settings: Alopecurus myosuroides, post-emergence, 240 h; for pest or weed control at 125 g/ha: 125 g ai/ha
# How it was run: as §1
# [6] = tested on: corn (Zea mays); experiment: Test A postemergence; settings: Zea mays, post-emergence, 240 h
# How it was run: as §1
# [7] = tested on: giant foxtail (Setaria faberii); experiment: Test A postemergence; settings: Setaria faberi, post-emergence, 240 h; for pest or weed control at 125 g/ha: 125 g ai/ha
# How it was run: as §1
# [8] = tested on: pigweed (Amaranthus retroflexus); experiment: Test A postemergence; settings: Amaranthus retroflexus, post-emergence, 240 h; for pest or weed control at 125 g/ha: 125 g ai/ha
# How it was run: as §1
# [9] = tested on: ragweed (common ragweed, Ambrosia elatior); experiment: Test A postemergence; settings: Ambrosia artemisiifolia, post-emergence, 240 h; for pest or weed control at 125 g/ha: 125 g ai/ha
# How it was run: as §1
# [10] = tested on: ryegrass, Italian (Italian ryegrass, Lolium multiflorum); experiment: Test A postemergence; settings: Lolium multiflorum, post-emergence, 240 h; for pest or weed control at 125 g/ha: 125 g ai/ha
# How it was run: as §1
# [11] = tested on: wheat (Triticum aestivum); experiment: Test A postemergence; settings: Triticum aestivum, post-emergence, 240 h; for plant injury at 125 g/ha: 125 g ai/ha
# How it was run: as §1
# [12] = tested on: barnyardgrass (Echinochloa crus-galli); experiment: Test B flooded paddy test; settings: Echinochloa crus-galli, Flood, 250 g ai/ha; scale of 0 to 100 where 0 is no effect and 100 is complete control; read-out: Barnyardgrass plant response rating
# How it was run: (§2)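 Compound goes directly into floodwater once pots are flooded 3 cm above soil, targeting plants at two leaves; the water depth is then held for the test duration. Plants sit 13–15 d in a greenhouse and are rated visually, 100 denoting complete control.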
# [13] = tested on: ducksalad (Heteranthera limosa); experiment: Test B flooded paddy test; settings: Heteranthera limosa, Flood, 250 g ai/ha; scale of 0 to 100 where 0 is no effect and 100 is complete control; read-out: Ducksalad plant response rating
# How it was run: as §2
# [14] = tested on: rice (Oryra sativa); experiment: Test B flooded paddy test; settings: Oryza sativa, Flood, 250 g ai/ha; scale of 0 to 100 where 0 is no effect and 100 is complete control; read-out: Rice plant response rating
# How it was run: as §2
# [15] = tested on: sedge, umbrella (small-flower umbrella sedge, Cyperus difformis); experiment: Test B flooded paddy test; settings: Cyperus difformis, Flood, 250 g ai/ha; scale of 0 to 100 where 0 is no effect and 100 is complete control; read-out: Sedge, Umbrella plant response rating
# How it was run: as §2
compound,measurement,setting,value
O=C(Nc1cccc(Cl)c1F)[C@H]1C(=O)N(C2CC2)CC[C@@H]1c1cccc(C(F)(F)F)c1 [Compound 926],pest or weed control at 125 g/ha,"[1]; preemergence, read-out: Kochia plant response rating",0%
same,pest or weed control at 500 g/ha,"[1]; 500 g ai/ha, preemergence, visual injury rating about 10 d after treatment, 0 to 100 scale (0 no effect, 100 complete control), read-out: Kochia plant response rating",0%
same,pest or weed control at 125 g/ha,"[2]; Postemergence, visual injury after approximately 10 d, 0 to 100 scale where 0 is no effect and 100 is complete control, read-out: Plant response rating, Galium",0%
same,pest or weed control at 125 g/ha,"[3]; Postemergence, visual injury after approximately 10 d, 0 to 100 scale where 0 is no effect and 100 is complete control, read-out: Plant response rating, Kochia",0%
same,pest or weed control at 125 g/ha,"[4]; Postemergence, visual injury after approximately 10 d, 0 to 100 scale where 0 is no effect and 100 is complete control, read-out: Plant response rating, Barnyardgrass",40%
same,pest or weed control at 125 g/ha,"[5]; Postemergence, visual injury after approximately 10 d, 0 to 100 scale where 0 is no effect and 100 is complete control, read-out: Plant response rating, Blackgrass",0%
same,"Corn plant response rating (crop injury, 0 = no effect, 100 = complete kill) at 125 g/ha","[6]; 125 g ai/ha, Postemergence, visual injury after approximately 10 d, 0 to 100 scale where 0 is no effect and 100 is complete control",0%
same,pest or weed control at 125 g/ha,"[7]; Postemergence, visual injury after approximately 10 d, 0 to 100 scale where 0 is no effect and 100 is complete control, read-out: Plant response rating, Foxtail, Giant",40%
same,pest or weed control at 125 g/ha,"[8]; Postemergence, visual injury after approximately 10 d, 0 to 100 scale where 0 is no effect and 100 is complete control, read-out: Plant response rating, Pigweed",0%
same,pest or weed control at 125 g/ha,"[9]; Postemergence, visual injury after approximately 10 d, 0 to 100 scale where 0 is no effect and 100 is complete control, read-out: Plant response rating, Ragweed",0%
same,pest or weed control at 125 g/ha,"[10]; Postemergence, visual injury after approximately 10 d, 0 to 100 scale where 0 is no effect and 100 is complete control, read-out: Plant response rating, Ryegrass, Italian",0%
same,plant injury at 125 g/ha,"[11]; Postemergence, visual injury after approximately 10 d, 0 to 100 scale where 0 is no effect and 100 is complete control, read-out: Plant response rating, Wheat",0%
same,pest or weed control at 250 g/ha,[12],0%
same,pest or weed control at 250 g/ha,[13],0%
same,pest or weed control at 250 g/ha,[14],0%
same,pest or weed control at 250 g/ha,[15],0%
CSc1ccccc1NC(=O)[C@H]1C(=O)N(C)CC[C@@H]1c1ccc2c(c1)OC(F)(F)O2 [Compound 814],pest or weed control at 125 g/ha,"[1]; preemergence, visual rating after approx. 10 d, read-out: Plant response rating, Kochia",0%
same,pest or weed control at 31 g/ha,"[1]; Preemergence, 31 g ai/ha, 0 to 100 scale (0 no effect, 100 complete control), read-out: Plant response rating, Kochia",0%
same,pest or weed control at 125 g/ha,"[2]; postemergence, visual injury rating after approximately 10 d, read-out: Galium plant response rating (0 to 100 scale, 0 no effect, 100 complete control)",0%
same,pest or weed control at 31 g/ha,"[2]; Postemergence, 31 g ai/ha, visual injury after approx. 10 d, 0 to 100 scale, 0 no effect, 100 complete control, read-out: Plant response rating, Galium",0%
same,pest or weed control at 125 g/ha,"[3]; postemergence, visual injury rating after approximately 10 d, read-out: Kochia plant response rating (0 to 100 scale, 0 no effect, 100 complete control)",0%
same,pest or weed control at 31 g/ha,"[3]; Postemergence, 31 g ai/ha, visual injury after approx. 10 d, 0 to 100 scale, 0 no effect, 100 complete control, read-out: Plant response rating, Kochia",0%
same,pest or weed control at 125 g/ha,"[4]; postemergence, visual injury rating after approximately 10 d, read-out: Barnyardgrass plant response rating (0 to 100 scale, 0 no effect, 100 complete control)",0%
same,pest or weed control at 31 g/ha,"[4]; Postemergence, 31 g ai/ha, visual injury after approx. 10 d, 0 to 100 scale, 0 no effect, 100 complete control, read-out: Plant response rating, Barnyardgrass",0%
same,pest or weed control at 125 g/ha,"[5]; postemergence, visual injury rating after approximately 10 d, read-out: Blackgrass plant response rating (0 to 100 scale, 0 no effect, 100 complete control)",0%
same,pest or weed control at 31 g/ha,"[5]; Postemergence, 31 g ai/ha, visual injury after approx. 10 d, 0 to 100 scale, 0 no effect, 100 complete control, read-out: Plant response rating, Blackgrass",0%
same,plant injury at 125 g/ha,"[6]; 125 g ai/ha, postemergence, visual injury rating after approximately 10 d, read-out: Corn plant response rating (0 to 100 scale, 0 no effect, 100 complete control)",0%
same,"Corn plant response rating (crop injury, 0 = no effect, 100 = complete kill) at 31 g/ha","[6]; Postemergence, 31 g ai/ha, visual injury after approx. 10 d, 0 to 100 scale, 0 no effect, 100 complete control",0%
same,pest or weed control at 125 g/ha,"[7]; postemergence, visual injury rating after approximately 10 d, read-out: Foxtail, Giant plant response rating (0 to 100 scale, 0 no effect, 100 complete control)",0%
same,pest or weed control at 31 g/ha,"[7]; Postemergence, 31 g ai/ha, visual injury after approx. 10 d, 0 to 100 scale, 0 no effect, 100 complete control, read-out: Plant response rating, Foxtail, Giant",0%
same,pest or weed control at 125 g/ha,"[8]; postemergence, visual injury rating after approximately 10 d, read-out: Pigweed plant response rating (0 to 100 scale, 0 no effect, 100 complete control)",0%
same,pest or weed control at 31 g/ha,"[8]; Postemergence, 31 g ai/ha, visual injury after approx. 10 d, 0 to 100 scale, 0 no effect, 100 complete control, read-out: Plant response rating, Pigweed",0%
same,pest or weed control at 125 g/ha,"[9]; postemergence, visual injury rating after approximately 10 d, read-out: Ragweed plant response rating (0 to 100 scale, 0 no effect, 100 complete control)",0%
same,pest or weed control at 31 g/ha,"[9]; Postemergence, 31 g ai/ha, visual injury after approx. 10 d, 0 to 100 scale, 0 no effect, 100 complete control, read-out: Plant response rating, Ragweed",0%
same,pest or weed control at 125 g/ha,"[10]; postemergence, visual injury rating after approximately 10 d, read-out: Ryegrass, Italian plant response rating (0 to 100 scale, 0 no effect, 100 complete control)",0%
same,pest or weed control at 31 g/ha,"[10]; Postemergence, 31 g ai/ha, visual injury after approx. 10 d, 0 to 100 scale, 0 no effect, 100 complete control, read-out: Plant response rating, Ryegrass, Italian",0%
same,plant injury at 125 g/ha,"[11]; postemergence, visual injury rating after approximately 10 d, read-out: Wheat plant response rating (0 to 100 scale, 0 no effect, 100 complete control)",0%
same,plant injury at 31 g/ha,"[11]; Postemergence, 31 g ai/ha, visual injury after approx. 10 d, 0 to 100 scale, 0 no effect, 100 complete control, read-out: Plant response rating, Wheat",0%
same,pest or weed control at 250 g/ha,[12],0%
same,pest or weed control at 250 g/ha,[13],50%
same,pest or weed control at 250 g/ha,[14],0%
same,pest or weed control at 250 g/ha,[15],60%

# From US12077503B2, “Substituted cyclic amides and their use as herbicides” (FMC CORPORATION, priority 2015, dated 2024)
